We go through 20 compounds from patent US4151300A, “Acetohydroxamic acids” (Laboratoire L. Lafon, priority 1976, dated 1979).

The subject of series [1] is central nervous system. The conditions noted are these: prior art; cited from earlier work.
In series [2] the test system is mice. The series is described as follows: toxicity (isolated mice, intraperitoneal). Type of series: in vivo. How it is done:
(§1) The following text summarises a part of the results of the tests which were carried out with the products according to the invention, these products (unless otherwise stated) being administered intraperitoneally, in suspension in a gum solution (gum arabic), in a volume of 20 ml/kg in the case of mice and of 5 ml/kg in the case of rats.

The test system of series [3] is mice. Kind of series: interaction with reserpine (hypothermia, ptosis). Type of series: in vivo. Particulars: i.p.; for reserpine-induced hypothermia: 512 mg/kg.
Series [4] concerns mice. The series is described as follows: interaction with oxotremorine (temperature, trembling, peripheral cholinergic symptoms). The format is in vivo. Particulars: mice, i.p.
For series [5], the system named is mice. The series is described as follows: spontaneous motility (actimeter). Type of series: in vivo. The conditions noted are these: i.p. How it is done:
as §1
Thirty minutes after having been given CRL 40,373, the mice (6 per dose, 12 comparison animals) are placed in an actimeter, where their motility is recorded for half an hour.
Thirty minutes after having been given CRL 40,385, the mice are placed in actimeters where their motility is recorded for half an hour.

In series [6] the test system is mice. The series is described as follows: motility reduced by habituation to a cage (residual motility). The conditions noted are these: i.p. The format is in vivo. How it is done:
as §1
Mice which have remained for 18 hours in the actimeters are given CRL 40,373. They are immediately replaced in their cages and, after a period of half an hour, their motility is recorded for 30 minutes (6 animals per dose, 12 comparison animals).
After remaining for 18 hours in the actimeters, the mice receive CRL 40,385. Immediately afterwards they are replaced in their cage and half an hour afterwards the recording of the motility starts and is continued for 30 minutes.

Series [7] relates to mice. Kind of series: motility reduced by hypoxia treatment (motor recovery). The format is in vivo. The conditions noted are these: for motor recovery after hypoxia/anoxia by pressure reduction: mice, i.p.
Series [8] relates to mice. Kind of series: inter-group aggressiveness (number of fights). Type of series: in vivo. How it is done:
as §1
After three weeks' residence in each of the halves of a cage divided by an opaque partition, the mice receive CRL 40,373 thirty minutes before being brought together by withdrawing the partition.
After 18 days' residence on either side of a partition separating their cage in the middle, groups of 3 mice receive CRL 40,385 and are brought together half an hour later by withdrawing the partition, and the number of fights which take place in the course of 15 minutes is noted.

The next series relates to rats. Kind of series: interaction with amphetamine (stereotypies in rats). Type of series: in vivo. The conditions noted are these: i.p., 256 mg/kg. How it is done:
as §1
30 minutes after the administration of CRL 40,373, amphetamine is injected intraperitoneally at a dose of 2 mg/kg.
Thirty minutes after the administration of CRL 40,385 the rats are given an intraperitoneal injection of 2 mg/kg of amphetamine (6 animals per dose).

Series [9] concerns central nervous system. Kind of series: psychopharmacological study / behaviour. Particulars: high dose (256 mg/kg). The format is in vivo, mice.

Take `O=C(CC[S+]([O-])c1ccc(F)cc1)NO` (centres unmarked) [3-(p-fluorophenylsulphinyl)-propionohydroxamic acid]: the usefulness in therapy result with central nervous system [1] is listed as “of interest in the treatment of the central nervous system”.

As for `O=C(CC[S+]([O-])C(c1ccccc1)c1ccccc1)NO` (centres unmarked) [3-benzhydrylsulphinyl-propionohydroxamic acid], in the series on central nervous system [1], the usefulness in therapy entry is reported as “of interest in the treatment of the central nervous system”.

As for `O=C(CCC[S+]([O-])c1ccc(Cl)cc1)NO` (centres unmarked) [4-(p-chlorophenylsulphinyl)-butyrohydroxamic acid], in the series on central nervous system [1], the usefulness in therapy result was “of interest in the treatment of the central nervous system”.

Consider `O=C(CCC[S+]([O-])c1ccc(F)cc1)NO` (centres unmarked) [4-(p-fluorophenylsulphinyl)-butyrohydroxamic acid], for which the usefulness in therapy entry in the series on central nervous system [1] is recorded as “of interest in the treatment of the central nervous system”.

As for `O=C(CCC[S+]([O-])C(c1ccccc1)c1ccccc1)NO` (centres unmarked) [4-benzhydrylsulphinyl-butyrohydroxamic acid], in the series on central nervous system [1], the usefulness in therapy result was “of interest in the treatment of the central nervous system”.

`O=C(CCC[S+]([O-])c1ccccc1)NO` (centres unmarked) [4-phenylsulphinylbutyrohydroxamic acid]: the usefulness in therapy entry in the series on central nervous system [1] is given as “of interest in the treatment of the central nervous system”.

Consider `O=C(CC(O)COc1cccc2ccccc12)NO` (stereo not drawn) [4-α-naphthyloxy-3-hydroxybutyrohydroxamic acid], for which the usefulness in therapy result in the series with central nervous system [1] was “inactive in therapy”.

Turning to `O=C(C[S+]([O-])Cc1ccc(Cl)cc1)NO` (stereo not drawn) [CRL 40,411, α-(Chlorobenzylsulphinyl)-acetohydroxamic acid], the “LD-O (maximum non-lethal dose)” value with mice [2] (mice, i.p.) is “greater than 1,024 mg/kg”.

On to `CCC(C(=O)NO)C(=O)N(c1ccccc1)c1ccccc1` (centres unmarked) [CRL 40,439, 2-(N,N-Diphenylcarbamoyl)-butyrohydroxamic acid], for which the “LD-O (maximum non-lethal dose)” value in the series with mice [2] (mice, i.p.) is “greater than 1,024 mg/kg”. Further, the symptoms / behaviour entry in the series with mice [2] (mouse, in vivo, ip, 128 mg/kg) is “none of these symptoms is observed”. Further, in the series with mice [3], the reserpine-induced ptosis result is on record as “does not affect reserpine-induced ptosis” and the reserpine-induced hypothermia result is given as “increases, at a dose of 512 mg/kg, the hypothermia-inducing effect of reserpine”. The oxotremorine-induced trembling entry in the series with mice [4] was “moderately reduces the intensity of the trembling movements due to oxotremorine”. Also, in the series with mice [4] (512 mg/kg), the “temperature (oxotremorine-induced hypothermia)” value (“temperature” below) is “increases, at a dose of 512 mg/kg, the hypothermia-inducing effect of reserpine and of oxotremorine”. For the same compound, the spontaneous motility result in the series with mice [5] (mice, 512 mg/kg) is given as “very great reduction in the spontaneous motility”. For the same compound, in the series on mice [6] (128 mg/kg), the “motility reduced by habituation to the cage” value (“motility reduced” for short) is recorded as “causes a resumption of the motor activity in animals habituated to their cage”. Further, the “motor recovery after hypoxia/anoxia by pressure reduction” value in the series with mice [7] was “does not improve the motor recovery”. The inter-group aggressiveness entry in the series on mice [8] (mice, i.p.) is “moderately reduces the inter-group aggressiveness in mice”.

As for `O=C(CC(=O)N(C1CCCCC1)C1CCCCC1)NO` [CRL 40,446, N,N-(Dicyclohexyl)-carbamoylacetohydroxamic acid], the mortality result in the series with mice [2] (mouse, in vivo) was “does not cause any mortality whatsoever”. In the series with mice [3], the reserpine-induced ptosis result is “ptosis induced by reserpine is not affected” and the reserpine-induced hypothermia result is “partially antagonises hypothermia induced by reserpine”. The spontaneous motility entry with mice [5] (mice, 128 and 512 mg/kg) was “reduces the spontaneous motility in mice”. For the same compound, the “motility reduced” value with mice [6] was “does not cause any resumption in the motor activity of mice”. For the same compound, the “motor recovery after hypoxia/anoxia by pressure reduction” value in the series with mice [7] was “does not cause any resumption in the motor activity of mice”. Besides, the inter-group aggressiveness result in the series on mice [8] (mice, i.p.) is “reduces, to a moderate degree, inter-group aggressiveness in mice”.

For `CC(C(=O)NO)N1C(=O)NC(c2ccccc2)(c2ccccc2)C1=O` (centres unmarked) [CRL 40,447, 2-[3-(5,5-Diphenylhydantoinyl)]-propionohydroxamic acid], the “LD-O (maximum non-lethal dose)” value in the series on mice [2] (mouse, in vivo, ip) is recorded as “greater than 1,024 mg/kg”. Moreover, the spontaneous motility result with mice [5] (mice, 512 mg/kg) is recorded as “reduces the spontaneous motility of mice”.

`CCC1(c2ccccc2)NC(=O)N(CC(=O)NO)C1=O` (centres unmarked) [CRL 40,450, 3-(5-Ethyl-5-phenyl-hydantoinyl)-acetohydroxamic acid]: the “LD-O (maximum non-lethal dose)” value in the series with mice [2] (mice, i.p.) was “greater than 1,024 mg/kg”. Also, the reserpine-induced hypothermia result with mice [3] is on record as “aggravates the hypothermia induced by reserpine”. The “temperature” value with mice [4] (512 mg/kg) was “aggravates the hypothermia induced by reserpine and by oxotremorine”. For the same compound, the oxotremorine-induced trembling result with mice [4] (high dose (512 mg/kg)) is recorded as “reduces the intensity of the trembling movements due to oxotremorine”. Moreover, the spontaneous motility result with mice [5] (mice, 512 mg/kg) is reported as “reduction in the spontaneous motility of mice”. Moreover, the inter-group aggressiveness result in the series with mice [8] (mice, i.p., 512 and 256 mg/kg) is recorded as “reduces the inter-group aggressiveness in mice”.

For the compound `O=C(CC(=O)Nc1ccc(Cl)cc1)NO` [CRL 40,464, N-(4-Chlorophenyl)-carbamoyl-acetohydroxamic acid], the “LD-O (maximum non-lethal dose)” value in the series with mice [2] (mice, i.p.) is “greater than 1,024 mg/kg”. Besides, the amphetamine-induced stereotypies result with rats was “reduces the intensity of amphetamine-induced stereotypies”. In the series with mice [4], the oxotremorine-induced trembling entry was “moderately reduces the intensity of the trembling movements” and the “temperature” value is “aggravates the hypothermia due to oxotremorine”. For the same compound, the spontaneous motility entry in the series with mice [5] was “reduces the spontaneous motility in mice”. The “motility reduced” value in the series with mice [6] (128 mg/kg) was “causes a resumption of the motor activity in animals habituated to their cage”.

Consider `O=C(CN1C(=O)NC(c2ccc(Cl)cc2)(c2ccc(Cl)cc2)C1=O)NO` [CRL 40,468, 3-(5,5-di-p-chlorophenyl-hydantoinyl)-acetohydroxamic acid], for which the mortality result is reported as “found dead 24 hours after the injection” with mice [2] (mouse, in vivo) and “no mortality is observed” in the series on mice [2] (mouse, in vivo, ip, 512 mg/kg). Moreover, the symptoms / behaviour entry with mice [2] (mouse, in vivo, ip, 512 mg/kg) was “the symptoms are comparable”. Moreover, the aggressiveness entry in the series on mice [8] (mice, i.p., large/high dose) was “reduces the number of fights”.

Consider `O=C(C[S+]([O-])Cc1cccc2ccccc12)NO` (stereo not drawn) [CRL 40,475, α-Naphthylmethylene-sulphinyl-acetohydroxamic acid], for which, in the series on mice [2] (mice, i.p.), the “LD-O (maximum non-lethal dose)” value is recorded as “greater than 1,024 mg/kg”.

For the compound `O=C(Cc1nc2ccccc2n1-c1ccccc1)NO` [CRL 40,490, 2-(1-Phenyl-benzimidazolyl)-acetohydroxamic acid], in the series with mice [2] (mice, i.p.), the “LD-O (maximum non-lethal dose)” value was “greater than 1,024 mg/kg”.

As to `O=C(CC(=O)Nc1ccc(Cl)c(Cl)c1)NO` [CRL 40,491, 3,4-Dichlorophenylcarbamoylacetohydroxamic acid], the “LD-O (maximum non-lethal dose)” value in the series with mice [2] (mice, i.p.) was “greater than 1,024 mg/kg”. Besides, in the series with mice [2] (mice, i.p., 1,024 mg/kg, 24 hours after administration), the mortality result is on record as “no mortality 24 hours after administration”. In addition, the amphetamine-induced stereotypies entry with rats was “reduces the intensity of amphetamine-induced stereotypies”. The spontaneous motility entry in the series on mice [5] (mice, 512 mg/kg) was “reduction in the spontaneous motility of mice”. Also, the “motility reduced” value in the series on mice [6] (256 mg/kg) is on record as “moderate resumption of the activity of mice habituated to their cage”. Further, in the series with mice [8] (mice, i.p., 256 mg/kg), the inter-group aggressiveness entry was “reduces the inter-group aggressiveness of mice”.

With `COc1cc(NC(=O)CC(=O)NO)cc(OC)c1OC` [CRL 40,509, 3,4,5-Trimethoxyphenyl-carbamoyl-acetohydroxamic acid], the anti-anoxia effect result in the series on mice [7] (64 and 128 mg/kg) was “an effect of the anti-anoxia type”. For the same compound, the anti-aggressive effect entry with mice [8] (very low doses (8 and 16 mg/kg)) is given as “an effect of the anti-aggressive type”. Further, in the series with central nervous system [9], the sedation entry was “sedation”.

With `O=C(CNC(=O)Nc1ccccc1)NO` [CRL 40,513, 5-Phenylureidoacetohydroxamic acid], in the series with mice [2] (mouse, in vivo, ip), the “LD-O (maximum non-lethal dose)” value is reported as “greater than 1,024 mg/kg”; the symptoms / behaviour entry was “sedation and hypothermia”. Besides, the “motor recovery after hypoxia/anoxia by pressure reduction” value in the series on mice [7] is listed as “improvement in the motor recovery of mice”. In the series on mice [8] (mice, i.p.), the inter-group aggressiveness result is given as “anti-aggressive effect”.

As to `O=C(C[S+]([O-])C(c1ccccc1)c1ccccc1)NO` (stereo not drawn) [β-benzhydrylsulphinyl-acetohydroxamic acid], the usefulness in therapy result in the series on central nervous system [1] is recorded as “of interest in the treatment of the central nervous system”.
